Measured values taken from ChEMBL document CHEMBL5528078, “Structural Basis for Molecular Recognition of Cannabinoids by Inhibitory Cys-Loop Channels” (J Med Chem, 2024).

How the values were obtained:
[1] = molecular target: T1, Glycine receptor subunit alpha-1 (Homo sapiens, UniProt P23415); experiment: Inhibition of human […] glycine receptor alpha 1 expressed in HEK293 cells; assay type: cell-based
T1 sequence (P23415 whole entry): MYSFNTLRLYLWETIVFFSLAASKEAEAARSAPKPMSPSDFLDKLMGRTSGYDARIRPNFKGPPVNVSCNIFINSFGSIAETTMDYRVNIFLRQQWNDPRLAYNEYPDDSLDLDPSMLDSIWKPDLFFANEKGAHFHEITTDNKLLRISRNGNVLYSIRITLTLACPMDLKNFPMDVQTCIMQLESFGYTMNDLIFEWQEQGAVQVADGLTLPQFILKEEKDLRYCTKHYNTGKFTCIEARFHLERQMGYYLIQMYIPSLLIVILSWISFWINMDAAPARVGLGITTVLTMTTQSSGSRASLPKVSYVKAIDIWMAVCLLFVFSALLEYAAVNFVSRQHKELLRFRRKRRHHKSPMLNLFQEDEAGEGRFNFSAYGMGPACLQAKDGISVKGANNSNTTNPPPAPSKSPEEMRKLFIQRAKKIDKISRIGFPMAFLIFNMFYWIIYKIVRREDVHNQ

[2] = molecular target: T2, Glycine receptor subunit alpha-2 (Homo sapiens, UniProt P23416); experiment: Inhibition of human […] glycine receptor alpha 2 expressed in HEK293 cells; assay type: cell-based
T2 sequence (P23416 whole entry): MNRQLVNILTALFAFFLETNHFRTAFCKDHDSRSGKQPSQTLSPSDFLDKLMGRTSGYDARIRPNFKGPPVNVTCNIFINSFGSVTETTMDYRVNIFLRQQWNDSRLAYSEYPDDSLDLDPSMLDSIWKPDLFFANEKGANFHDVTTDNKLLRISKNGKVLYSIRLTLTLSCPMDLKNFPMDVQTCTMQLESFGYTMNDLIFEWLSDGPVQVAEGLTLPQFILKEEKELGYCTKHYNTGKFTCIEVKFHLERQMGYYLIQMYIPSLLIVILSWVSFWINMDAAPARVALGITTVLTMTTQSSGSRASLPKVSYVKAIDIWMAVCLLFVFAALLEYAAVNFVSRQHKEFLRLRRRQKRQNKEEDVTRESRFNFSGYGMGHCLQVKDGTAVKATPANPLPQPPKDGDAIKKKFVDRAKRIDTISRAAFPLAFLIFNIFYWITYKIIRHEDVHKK

[3] = Cytotoxicity against HEK293 cells assessed as inhibition of cell growth incubated for 48 hrs by CCK8 assay; assay type: toxicity, cell-based; conditions: human
[4] = Inhibition of […] glycine receptor (unknown origin) expressed in HEK293 cells; assay type: cell-based, Homo sapiens

CCCCCCC(C)(C)c1cc(O)c2c(c1)OC(C)(C)[C@@H]1CC=C(CO)C[C@@H]21
IC50 [1]: 2.7 µM

C=C(C)[C@@H]1CCC(C)=C[C@H]1c1c(O)cc(CCCCC)cc1O [CANNABIDIOL]
IC50 [2]: 2.7 µM | EC50 at 48 h [3]: 12 µM

CCCCCc1cc(O)c2c(c1)OC(C)(C)[C@@H]1CCC(C)=C[C@@H]21 [DRONABINOL]
IC50 [4]: 2.7 µM
